Experimental data as given in US12599136B2, “Substituted isophthalic acid diamides and their use as herbicides” (Bayer Aktiengesellschaft, priority 2020, dated 2026).

Legend:
Assay type in all cases: in vivo
Veronica persica [1] = assay: Pre-emergence herbicidal action against VERPE; details: 80 g/ha
Method in brief: (§1)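 Herbicidal effect was assessed 3 weeks after treatment by visual comparison with untreated controls, 100% denoting dead plants. Aqueous WP or EC preparations had been applied at 600 to 800 l/ha with 0.2% wetting agent to the soil covering freshly sown seeds.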

Veronica persica [2] = assay: Post-emergence herbicidal action against VERPE; details: 20 g/ha, visual assessment about 3 weeks after treatment
Method in brief: (§2)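 Post-emergence greenhouse test; one-leaf stage, 2–3 wk post-sowing, sandy loam. Foliar spray of WP/EC in water, 600–800 l/ha, +0.2% wetting agent. Visual % action at ~3 wk vs untreated (100% = plants dead).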

Matricaria inodora [3] = assay: Pre-emergence herbicidal action against MATIN; details: visual score after 3 weeks vs untreated controls
Method in brief: as §1

Viola tricolor [4] = assay: Pre-emergence herbicidal action against VIOTR
Method in brief: as §1

Amaranthus retroflexus [5] = assay: Post-emergence herbicidal action against AMARE; details: visual assessment about 3 weeks after treatment
Method in brief: as §2

Amaranthus retroflexus [6] = assay: Pre-emergence herbicidal action against AMARE; details: visual score after 3 weeks vs untreated controls
Method in brief: as §1

Pharbitis purpurea [7] = assay: Pre-emergence herbicidal action against PHBPU; details: 80 g/ha; visual score after 3 weeks vs untreated controls
Description: (§3) Seeds of monocotyledonous and dicotyledonous weed plants and crop plants are laid out in sandy loam soil in wood-fiber pots and covered with soil. The compounds of the invention, formulated in the form of wettable powders (WP) or as emulsion concentrates (EC), are then applied to the surface of the covering soil in the form of an aqueous suspension or emulsion at a water application rate equivalent to 600 to 800 l/ha, with addition of 0.2% wetting agent. After the treatment, the pots are placed in a greenhouse and kept under good growth conditions for the trial plants. The damage to the test plants is scored visually after a test period of 3 weeks by comparison with untreated controls (herbicidal activity in percent (%): 100% activity=the plants have died, 0% activity=like control plants). […] The tables below illustrate, in an illustrative manner, the post-emergence herbicidal action of the compounds of the invention, the herbicidal activity being stated in percent.

Setaria viridis [8] = assay: Post-emergence herbicidal action against SETVI; details: visual assessment about 3 weeks after treatment
Method in brief: as §2

Alopecurus myosuroides [9] = assay: Pre-emergence herbicidal action against ALOMY; details: visual score after 3 weeks vs untreated controls
Method in brief: as §1

Abutilon theophrasti [10] = assay: Pre-emergence herbicidal action against ABUTH; details: visual score after 3 weeks vs untreated controls
Method in brief: as §1

Viola tricolor [11] = assay: Post-emergence herbicidal action against VIOTR
Method in brief: as §2

Abutilon theophrasti [12] = assay: Post-emergence herbicidal action against ABUTH
Method in brief: as §2

Echinochloa crus-galli [13] = assay: Post-emergence herbicidal action against ECHCG; details: 20 g/ha, visual assessment about 3 weeks after treatment
Method in brief: as §2

Setaria viridis [14] = assay: Pre-emergence herbicidal action against SETVI; details: 80 g/ha
Method in brief: as §1

Pharbitis purpurea [15] = assay: Post-emergence herbicidal action against PHBPU; details: visual assessment about 3 weeks after treatment
Method in brief: as §2

Alopecurus myosuroides [16] = assay: Post-emergence herbicidal action against ALOMY; details: 20 g/ha
Method in brief: as §2

Lolium rigidum = assay: Pre-emergence herbicidal action against LOLRI; details: 80 g/ha
Description: as §3

Digitaria sanguinalis = assay: Post-emergence herbicidal action against DIGSA
Experimental: Seeds of monocotyledonous and dicotyledonous weed and crop plants are laid out in sandy loam soil in wood-fiber pots, covered with soil and cultivated in a greenhouse under good growth conditions. 2 to 3 weeks after sowing, the test plants are treated at the one-leaf stage. The compounds of the invention, formulated in the form of wettable powders (WP) or as emulsion concentrates (EC), are then sprayed onto the green parts of the plants in the form of an aqueous suspension or emulsion at a water application rate equivalent to 600 to 800 l/ha, with addition of 0.2% wetting agent. After the test plants have been left to stand in the greenhouse under optimal growth conditions for about 3 weeks, the action of the preparations is assessed visually in comparison to untreated controls (herbicidal action in percent (%): 100% activity=the plants have died, 0% activity=like control plants). […] The tables below illustrate, in an illustrative manner, the post-emergence herbicidal action of the compounds of the invention, the herbicidal activity being stated in percent.

Avena fatua = assay: Pre-emergence herbicidal action against AVEFA; details: 80 g/ha; visual score after 3 weeks vs untreated controls
Method in brief: as §1

Matricaria inodora [17] = assay: Post-emergence herbicidal action against MATIN; details: visual assessment about 3 weeks after treatment
Method in brief: as §2

Echinochloa crus-galli [18] = assay: Pre-emergence herbicidal action against ECHCG; details: 80 g/ha; visual score after 3 weeks vs untreated controls
Method in brief: as §1

CCN(CC)C(=O)c1c(Br)ccc(C(=O)Nc2nnnn2C)c1Cl [Example 1-200]
90%: Post-emergence action against VERPE in % (Veronica persica [2]) | Pre-emergence action against AMARE (Amaranthus retroflexus [6]; 20 g/ha) | Post-emergence action against SETVI in % (Setaria viridis [8]; 20 g/ha) | Pre-emergence action against ABUTH (Abutilon theophrasti [10]; 20 g/ha) | Post-emergence action against ABUTH (Abutilon theophrasti [12]; 20 g/ha) | Post-emergence action against PHBPU in % (Pharbitis purpurea [15]; 20 g/ha)
100%: Pre-emergence action against VERPE (Veronica persica [1]) | Pre-emergence action against MATIN (Matricaria inodora [3]; 80 g/ha) | Pre-emergence action against VIOTR (Viola tricolor [4]; 80 g/ha) | Post-emergence action against AMARE in % (Amaranthus retroflexus [5]; 5 g/ha) | Post-emergence action against AMARE in % (Amaranthus retroflexus [5]; 20 g/ha) | Pre-emergence action against AMARE (Amaranthus retroflexus [6]; 80 g/ha) | Pre-emergence action against ALOMY (Alopecurus myosuroides [9]; 80 g/ha) | Pre-emergence action against ABUTH (Abutilon theophrasti [10]; 80 g/ha) | Post-emergence action against ECHCG in % (Echinochloa crus-galli [13]) | Pre-emergence action against SETVI (Setaria viridis [14])
80%: Pre-emergence action against PHBPU (Pharbitis purpurea [7]) | Post-emergence action against SETVI in % (Setaria viridis [8]; 5 g/ha) | Post-emergence action against VIOTR in % (Viola tricolor [11]; 5 g/ha) | Post-emergence action against VIOTR in % (Viola tricolor [11]; 20 g/ha) | Post-emergence action against ABUTH (Abutilon theophrasti [12]; 5 g/ha)

CCN(C)C(=O)c1c(C(F)F)ccc(C(=O)Nc2nnnn2CC)c1Cl [Example 2-155]
80%: Pre-emergence action against MATIN (Matricaria inodora [3]; 20 g/ha) | Post-emergence action against DIGSA in % (Digitaria sanguinalis; 5 g/ha) | Post-emergence action against DIGSA in % (Digitaria sanguinalis; 20 g/ha) | Post-emergence action against MATIN in % (Matricaria inodora [17]; 5 g/ha) | Post-emergence action against SETVI in % (Setaria viridis [8]; 5 g/ha) | Post-emergence action against VIOTR in % (Viola tricolor [11]; 20 g/ha) | Post-emergence action against ABUTH (Abutilon theophrasti [12]; 5 g/ha) | Post-emergence action against PHBPU in % (Pharbitis purpurea [15]; 5 g/ha) | Post-emergence action against PHBPU in % (Pharbitis purpurea [15]; 20 g/ha)
100%: Pre-emergence action against MATIN (Matricaria inodora [3]; 80 g/ha) | Pre-emergence action against VIOTR (Viola tricolor [4]; 80 g/ha) | Post-emergence action against AMARE in % (Amaranthus retroflexus [5]; 5 g/ha) | Post-emergence action against AMARE in % (Amaranthus retroflexus [5]; 20 g/ha) | Pre-emergence action against AMARE (Amaranthus retroflexus [6]; 20 g/ha) | Pre-emergence action against AMARE (Amaranthus retroflexus [6]; 80 g/ha) | Post-emergence action against SETVI in % (Setaria viridis [8]; 20 g/ha) | Pre-emergence action against ABUTH (Abutilon theophrasti [10]; 20 g/ha) | Pre-emergence action against ABUTH (Abutilon theophrasti [10]; 80 g/ha) | Pre-emergence action against ECHCG (Echinochloa crus-galli [18]) | Pre-emergence action against SETVI (Setaria viridis [14])
90%: Pre-emergence action against VERPE (Veronica persica [1]) | Post-emergence action against ALOMY (Alopecurus myosuroides [16]) | Pre-emergence action against LOLRI (Lolium rigidum) | Pre-emergence action against AVEFA (Avena fatua) | Post-emergence action against MATIN in % (Matricaria inodora [17]; 20 g/ha) | Pre-emergence action against ALOMY (Alopecurus myosuroides [9]; 80 g/ha) | Post-emergence action against ABUTH (Abutilon theophrasti [12]; 20 g/ha)

CCN(CC)C(=O)c1c(Br)ccc(C(=O)Nc2nnnn2CC)c1Cl [Example 2-200]
80;; %: Post-emergence action against MATIN in % (Matricaria inodora [17]; 20 g/ha)
80%: Pre-emergence action against VIOTR (Viola tricolor [4]; 20 g/ha) | Post-emergence action against ABUTH (Abutilon theophrasti [12]; 5 g/ha) | Post-emergence action against PHBPU in % (Pharbitis purpurea [15]; 20 g/ha)
100;; %: Post-emergence action against ABUTH (Abutilon theophrasti [12]; 20 g/ha)
90%: Pre-emergence action against VERPE (Veronica persica [1]) | Post-emergence action against VERPE in % (Veronica persica [2]) | Pre-emergence action against MATIN (Matricaria inodora [3]; 20 g/ha) | Pre-emergence action against AVEFA (Avena fatua) | Pre-emergence action against PHBPU (Pharbitis purpurea [7]) | Pre-emergence action against ALOMY (Alopecurus myosuroides [9]; 20 g/ha) | Pre-emergence action against ECHCG (Echinochloa crus-galli [18])
100%: Post-emergence action against ALOMY (Alopecurus myosuroides [16]) | Pre-emergence action against MATIN (Matricaria inodora [3]; 80 g/ha) | Pre-emergence action against VIOTR (Viola tricolor [4]; 80 g/ha) | Post-emergence action against AMARE in % (Amaranthus retroflexus [5]; 5 g/ha) | Post-emergence action against AMARE in % (Amaranthus retroflexus [5]; 20 g/ha) | Pre-emergence action against AMARE (Amaranthus retroflexus [6]; 20 g/ha) | Pre-emergence action against AMARE (Amaranthus retroflexus [6]; 80 g/ha) | Post-emergence action against SETVI in % (Setaria viridis [8]; 5 g/ha) | Post-emergence action against SETVI in % (Setaria viridis [8]; 20 g/ha) | Pre-emergence action against ALOMY (Alopecurus myosuroides [9]; 80 g/ha) | Pre-emergence action against ABUTH (Abutilon theophrasti [10]; 20 g/ha) | Pre-emergence action against ABUTH (Abutilon theophrasti [10]; 80 g/ha) | Post-emergence action against VIOTR in % (Viola tricolor [11]; 20 g/ha) | Pre-emergence action against SETVI (Setaria viridis [14])
